According to patent US5843916A, “Cyclic amp analogues, individually and in pairs, to inhibit neoplastic cell growth” (priority 1994, dated 1998):
Entries after “also recorded” stand apart in the source; their conditions may differ. Where two headings read alike, the source gives them in different places.

Key:
[1] = biological target: T1, RI, regulatory subunit of cAMP-dependent protein kinase type I (Oryctolagus cuniculus, UniProt G1TDN4); test: Binding affinity for RI (Table 14)
T1 construct: from tissue
T1 sequence (G1TDN4 1-381): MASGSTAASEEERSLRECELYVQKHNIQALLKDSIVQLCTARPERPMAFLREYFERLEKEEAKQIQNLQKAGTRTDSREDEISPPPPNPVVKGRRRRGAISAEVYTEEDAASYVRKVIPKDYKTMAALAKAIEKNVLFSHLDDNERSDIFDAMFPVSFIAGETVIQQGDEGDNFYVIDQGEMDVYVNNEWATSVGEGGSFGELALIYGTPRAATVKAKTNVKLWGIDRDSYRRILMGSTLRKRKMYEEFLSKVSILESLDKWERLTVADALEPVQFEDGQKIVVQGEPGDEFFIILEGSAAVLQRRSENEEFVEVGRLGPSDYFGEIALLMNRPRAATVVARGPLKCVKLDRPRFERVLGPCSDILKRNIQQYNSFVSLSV
Method: (§1) RI and RII are the regulatory subunits of cAMP-dependent protein
(§2) kinase type I and type II, respectively. Site A (Site 2) and Site B
(§3) (RI and RII): the affinities of analogues for Site A and Site B were
(§4) determined by the measurement of kinetic constants (inhibition constant,
(§5) Ki), and the values are expressed as the relative affinity Ki
(§6) (analogue), i.e., the ratio between the apparent inhibition constant for
(§7) cAMP and the analogue, as described in Ogreid et al., Eur. J. Biochem.

[2] = system: RI, regulatory subunit of cAMP-dependent protein kinase type I; test: Binding affinity for RI (Table 14); details: compared with 8-Cl-cAMP
Method: as §1, §2, §3, §4, §5, §6, §7

HL-60 Cells = test: Cell cycle kinetics of HL-60 cells (Table 17); format: cell-based, human; details: for % G2 M: control 8.3; for % G0-G1: control 45.7; for % S: control 46
Method: (§8) Briefly, cells were fixed in 70% ethanol and stored at 4° C. before analysis. Nuclear DNA was stained with propidium iodide, 50 μg/ml in phosphate-buffered saline (pH 7.4), for 30 minutes at room temperature. RNase was added to avoid double-helix RNA staining. The DNA content of cells was analyzed by a FACScan flow cytometer coupled with a Hewlett-Packard computer. Cell cycle data analysis was performed by a Cell-FIT program according to the method of Dean (Cell Tissue Kinet. 13: 299-308 (1980)) (Becton Dickinson Immunocytometry Systems). Pulse area versus pulse width gating was performed to exclude doublets from the G2 -M region. For each sample, 20,000 events were stored in list mode. Cell surface antigen analysis was performed by flow cytometry with FACScan using a panel of monoclonal antibodies reactive with either monocytic or myeloid cells.

[3] = biological target: T2, RII, regulatory subunit of cAMP-dependent protein kinase type II (Bos taurus, UniProt P00515); test: Binding affinity for RII (Table 14)
T2 construct: from tissue
T2 sequence (P00515 whole entry): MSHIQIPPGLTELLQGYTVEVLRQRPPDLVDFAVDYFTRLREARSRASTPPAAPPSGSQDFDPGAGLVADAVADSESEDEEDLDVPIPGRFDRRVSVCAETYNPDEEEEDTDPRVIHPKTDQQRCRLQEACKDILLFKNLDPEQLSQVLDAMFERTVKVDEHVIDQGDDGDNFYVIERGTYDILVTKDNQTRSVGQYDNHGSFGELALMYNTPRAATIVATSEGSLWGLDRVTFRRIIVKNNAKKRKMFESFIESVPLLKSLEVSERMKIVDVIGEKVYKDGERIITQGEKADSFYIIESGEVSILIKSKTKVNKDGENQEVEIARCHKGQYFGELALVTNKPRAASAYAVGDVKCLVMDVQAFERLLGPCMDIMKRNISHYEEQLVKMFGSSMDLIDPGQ
Method: as §1, §2, §3, §4, §5, §6, §7

HL-60 leukemia cells = test: Surface antigen expression of HL-60 cells (Example 5); format: cell-based, human; details: Homo sapiens, HL-60, 72 h
Method: as §8
The effect of Rp- and Sp-8-Cl-cAMPS on the expression of differentiation markers in HL-60 cells was examined to determine if the growth-arrested HL-60 cells are more differentiated than untreated cells. […] For each sample, 2×10^4 cells were analyzed. Cell surface antigen analysis was performed by flow cytometry with FACScan. Cell gating was performed using forward and side scatter.

[4] = biological target: T3, Protein kinase type II (cAKII) (Bos taurus, UniProt P00515); test: Protein kinase activation (Table 15); format: biochemical, bovine (heart); details: half-maximum activation; U. M.: unmeasurable
T3 construct: prepared from rabbit skeletal muscle and bovine heart; from tissue; host or cells: bovine heart
T3 sequence (P00515 2-401 limits assumed): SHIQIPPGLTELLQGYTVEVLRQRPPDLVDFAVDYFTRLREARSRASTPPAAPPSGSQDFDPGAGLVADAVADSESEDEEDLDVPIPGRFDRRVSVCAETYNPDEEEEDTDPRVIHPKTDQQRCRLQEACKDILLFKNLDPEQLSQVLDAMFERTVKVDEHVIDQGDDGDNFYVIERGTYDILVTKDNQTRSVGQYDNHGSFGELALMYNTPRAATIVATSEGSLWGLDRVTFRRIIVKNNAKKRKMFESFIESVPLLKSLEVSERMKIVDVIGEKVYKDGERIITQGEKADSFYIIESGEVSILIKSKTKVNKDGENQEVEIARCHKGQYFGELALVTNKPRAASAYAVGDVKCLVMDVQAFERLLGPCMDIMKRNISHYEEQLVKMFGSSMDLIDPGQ
Method: (§9) ATP to Kemptide as described by Ogreid et al., Eur. J. Biochem. 150: 219-227 (1985).
(§10) Protein kinases types I (cAKI) and II (cAKII) were
(§11) prepared from rabbit skeletal muscle and bovine heart,
(§12) respectively, as described in D.o slashed.skeland et al. (J. Biol.
(§13) of the protein kinase in Ogreid et al. (Eur. J. Biochem.

[5] = system: LS-174T human colon carcinoma cells; test: Additive growth inhibition with 8-Cl-cAMP (Table 19); format: cell-based
Method: The medium was changed every 48 hours.
At desired times, cell counts were performed in duplicate on a Coulter Counter after harvesting cells with gentle trypsinization.
The analogues were added at 24

[6] = system: HL-60 human leukemia cells; test: Growth inhibition of HL-60 leukemia cells (Example 3, Table 16); format: cell-based; details: for IC50: Homo sapiens; for fold less potent than 8-Cl-cAMP: growth inhibition HL-60, day 6
Method: HL-60 leukemic cells were obtained from the American Type Culture Collection (Rockville, Md.) and were grown in suspension culture in RPMI 1640 supplemented with 10% heat-inactivated fetal bovine serum, streptomycin (500 μg/ml), penicillin (50 units/ml), and glutamine (1 mM) (Gibco, Grand Island, N.Y.).
Cell counts were performed at desired times on a Coulter Counter.
The IC50 values were determined from the dose-
represent an average value obtained for each analogue
from two or more separate experiments carried out from 3
days or 6 days. Initial cell number, 1 × 10^5 /dish.
Typical numbers of untreated control cells at day 3 and
viability in treated and control cells.

[7] = biological target: T4, Protein kinase type I (cAKI) (Oryctolagus cuniculus, UniProt G1TDN4); test: Protein kinase activation (Table 15); format: biochemical, rabbit (skeletal muscle); details: half-maximum activation; U. M.: unmeasurable
T4 construct: prepared from rabbit skeletal muscle and bovine heart; from tissue; host or cells: rabbit skeletal muscle
T4 sequence (G1TDN4 1-381): as the sequence (G1TDN4 1-381) above
Method: as §9, §10, §11, §12, §13

[8] = system: LS-174T human colon carcinoma cells; test: Growth inhibition of LS-174T cells (Example 4, Table 18); format: cell-based
Method: LS-174T human colon carcinoma cells were obtained from the National Cancer Institute, Division of Cancer Treatment, Bethesda, Md., and were grown in Eagle's minimum essential medium supplemented with 10% heat-inactivated fetal bovine serum, Eagle's minimum essential medium nonessential amino acids, 20 mM 4-(2-hydroxyethyl)-1-piperazineethanesulfonic acid, 2mM glutamine, and penicillin-streptomycin (Gibco). The medium was changed every 48 hours.
LS-174T cells were seeded at a density of 2×10^5 / 60 mm dish. […] At desired times, cell counts were performed in duplicate on a Coulter Counter after harvesting cells with gentle trypsinization.
The percentage growth inhibition values shown at 10
and 50 μM analogue concentrations were determined from
the dose-response curve experiments like those shown in
FIG. 1 and represent an average value obtained for each
analogue from two or more separate experiments. Sp-6-SET-

[9] = system: cAMP-phosphodiesterase (PDE); details: no test described; cited from earlier work

## Nc1ncnc2c1nc(Cl)n2[C@@H]1O[C@@H]2CO[P@@](O)(=S)O[C@H]2[C@H]1O [Rp-8-Cl-cAMPS, Rp-(equatorial exocyclic sulfursubstitution) 8-chloro-adenosine 3': 5'-monophosphorothioate]
[1]; Site A (Site 2)
  relative affinity Ki (cAMP)/Ki (analogue), RI Site A: 0.0079
[1]; Site B (Site 1)
  relative affinity Ki (cAMP)/Ki (analogue), RI Site B: 0.0042
[1]; vs cyclophosphate
  decrease in affinity for Site A of RI vs corresponding cyclophosphate: 340 fold
  decrease in affinity for Site B of RI vs corresponding cyclophosphate: 480 fold
[2]
  affinity for cAMP receptor protein / protein kinase: reduced affinity for the cAMP receptor protein
HL-60 Cells; 10 μM, 96 hours
  % G2 M: 9.8%
  % G0-G1: 43.5%
  % S: 46.7%
HL-60 Cells; 50 μM, 96 hours
  % G2 M: 9.0%
  % G0-G1: 41.6%
  % S: 49.4%
HL-60 Cells; 100 μM, 96 hours
  % G2 M: 10.9%
  % G0-G1: 37.9%
  % S: 51.2%
HL-60 Cells; 100 μM, 96 hours, footnote b
  toxic effect: Toxic effect
HL-60 Cells; HL-60, 96 hours in Table 17
  cell cycle phase distribution: not appreciably different; also recorded: did not bring about any change in cell cycle phase
[3]; Site A (Site 2)
  relative affinity Ki (cAMP)/Ki (analogue), RII Site A: 0.00028
[3]; Site B (Site 1)
  relative affinity Ki (cAMP)/Ki (analogue), RII Site B: 0.44
[3]; vs cyclophosphate
  decrease in affinity for Site A of RII vs corresponding cyclophosphate: 180 fold
  decrease in affinity for Site B of RII vs corresponding cyclophosphate: 10 fold
HL-60 leukemia cells; read-out: cell viability
  viability at 50 µM: 90%
HL-60 leukemia cells; read-out: increase of HLA-DR over control
  fold induction at 50 µM: 2
HL-60 leukemia cells; read-out: increase of Leu-15 over control
  fold induction at 50 µM: 3
[4]
  Activation Constant (Ka), cAKII: U. M.
[5]; Homo sapiens, LS174T, 96 h, 5 μM, 4 days
  inhibition at 5 µM: 34%
[5]; Homo sapiens, LS174T, 96 h, 10 μM, 4 days
  inhibition at 10 µM: 48%
[5]; Homo sapiens, LS174T, 96 h, 200 μM, 4 days
  inhibition at 200 µM: 80%
[5]; with 8-Cl-cAMP
  effect on growth-inhibitory effect of 8-Cl-cAMP: additive effect
[6]; HL-60
  growth inhibitory potency: less inhibitory than 8-Cl-cAMP but was more potent than Sp-8-Cl-cAMPS
[6]; HL-60, 72 h, read-out: Growth inhibition (IC50), Day 3
  IC50: 16 µM
[6]; HL-60, 144 h, read-out: Growth inhibition (IC50), Day 6
  IC50: 3 µM
[6]
  fold less potent than 8-Cl-cAMP: about 10 fold
[6]; listed as Rp-phosphorothioate of 8-Cl-cAMP
  fold less potent than 8-Cl-cAMP: 10 fold
[6]; vs Sp-8-Cl-cAMPS
  growth inhibitory effect greater than that of Sp-8-Cl-cAMPS: 3 fold
[7]
  Activation Constant (Ka), cAKI: U. M.
[8]; Homo sapiens, LS174T
  inhibition at 10 µM: 48%
  inhibition at 50 µM: 70%
[8]; LS-174T
  growth inhibitory potency: greatest inhibition of cell growth
[9]
  hydrolysis by phosphodiesterase: resistant to hydrolysis
